The source of these data is ChEMBL document CHEMBL1130767, “Discovery of a new cyclooxygenase-2 lead compound through 3-D database searching and combinatorial chemistry” (Bioorg Med Chem Lett, 1998).

The target in assay [1] is T1, Prostaglandin G/H synthase 2 (Homo sapiens) (UniProt P35354).
T1 sequence (whole entry): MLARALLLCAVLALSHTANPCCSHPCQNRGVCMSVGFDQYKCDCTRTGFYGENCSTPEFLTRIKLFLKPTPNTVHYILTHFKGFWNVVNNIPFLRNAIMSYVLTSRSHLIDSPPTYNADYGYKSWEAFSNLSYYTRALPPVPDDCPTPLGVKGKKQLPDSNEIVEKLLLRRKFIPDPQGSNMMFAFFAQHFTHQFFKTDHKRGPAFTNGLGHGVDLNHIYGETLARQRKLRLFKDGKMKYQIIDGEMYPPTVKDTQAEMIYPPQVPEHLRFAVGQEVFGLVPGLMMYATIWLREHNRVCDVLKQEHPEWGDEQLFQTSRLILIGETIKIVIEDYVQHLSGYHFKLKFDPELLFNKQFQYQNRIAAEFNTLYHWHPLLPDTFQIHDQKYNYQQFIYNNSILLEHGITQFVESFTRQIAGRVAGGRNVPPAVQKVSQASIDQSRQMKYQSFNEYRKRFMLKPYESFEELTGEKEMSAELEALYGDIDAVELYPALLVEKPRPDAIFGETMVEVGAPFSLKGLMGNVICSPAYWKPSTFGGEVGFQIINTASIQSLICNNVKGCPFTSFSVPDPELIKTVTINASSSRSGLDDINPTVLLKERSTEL
Put plainly: Compound was evaluated for percent inhibition of Prostaglandin G/H synthase 2 at the concentration of 0.3 uM.

Assay [2] concerns the target T2, Prostaglandin G/H synthase 1 (Homo sapiens, UniProt P23219). Description: Inhibitory activity was evaluated against human Prostaglandin G/H synthase 1 was determined.
Assay [3] deals with T3, Prostaglandin G/H synthase 2 (Homo sapiens, UniProt P35354).
T3 sequence (P35354 whole entry): T1 sequence (whole entry)
Put plainly: Inhibitory activity was evaluated against human Prostaglandin G/H synthase 2 was determined.

Assay [4] deals with T2, Prostaglandin G/H synthase 1. Put plainly: Compound was evaluated for the inhibition of Prostaglandin G/H synthase 1 at the concentration of 3 uM.
Assay [5] shares this target. Put plainly: Compound was evaluated for percent inhibition of Prostaglandin G/H synthase 1 at the concentration of 0.3 uM.
In assay [6] the target is T1, Prostaglandin G/H synthase 2 (Homo sapiens). Description: Compound was evaluated for percent inhibition of Prostaglandin G/H synthase 2 at the concentration of 10 uM.
In assay [7] the target is T2, Prostaglandin G/H synthase 1. Description: Compound was evaluated for percent inhibition of Prostaglandin G/H synthase 1 at the concentration of 10 uM.

pIC50: −log10 of the molar value.

T2 sequence (P23219 whole entry): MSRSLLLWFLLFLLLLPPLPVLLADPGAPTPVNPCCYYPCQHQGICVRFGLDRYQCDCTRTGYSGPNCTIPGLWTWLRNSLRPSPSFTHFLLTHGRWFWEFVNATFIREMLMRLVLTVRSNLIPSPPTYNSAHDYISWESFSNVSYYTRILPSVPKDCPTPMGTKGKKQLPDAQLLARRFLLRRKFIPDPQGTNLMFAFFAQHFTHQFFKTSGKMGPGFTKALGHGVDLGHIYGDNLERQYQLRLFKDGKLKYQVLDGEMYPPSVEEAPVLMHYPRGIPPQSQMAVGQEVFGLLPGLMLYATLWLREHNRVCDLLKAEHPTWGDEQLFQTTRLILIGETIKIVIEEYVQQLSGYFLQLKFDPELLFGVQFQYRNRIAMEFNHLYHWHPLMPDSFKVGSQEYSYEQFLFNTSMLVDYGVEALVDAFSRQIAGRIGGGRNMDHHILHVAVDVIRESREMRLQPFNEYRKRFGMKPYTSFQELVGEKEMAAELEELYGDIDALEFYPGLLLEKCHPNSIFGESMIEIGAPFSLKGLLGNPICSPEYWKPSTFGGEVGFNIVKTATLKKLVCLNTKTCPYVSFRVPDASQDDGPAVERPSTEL

One may read the inhibition as the relative decrease from the control value, in per cent. High values mean a response far below the control, low ones a response near the control. In the case of `CCC(=O)NCCCN1c2ccccc2Sc2ccccc21`, in assay [1], the inhibition was found to be 18%.
As a reminder, the pIC50 is the negative decadic logarithm of the IC50, by convention in mol/L. Low readings indicate a large IC50, high ones a small IC50. Turning to `CC(S)CN1c2ccccc2Sc2ccccc21` (centres undefined), the pIC50 in assay [2] is 6.30; in assay [3], 5.40.
`O=C(CCC1CCCCC1)NCCCN1c2ccccc2Sc2ccccc21` showed an inhibition in assay [1] of 15%.
With `CC(O)CN1c2ccccc2Sc2ccccc21` (centres undefined), the pIC50 was 6.00 in assay [2] and 5.30 in assay [3].
Consider `CC(C)(Oc1ccc(Cl)cc1)C(=O)NCCCN1c2ccccc2Sc2ccccc21`, for which the inhibition in assay [1] is 44%; in assay [4], 17%; in assay [5], 13%. In assay [3], the negative logarithm of the IC50 (pIC50) is 5.89.
Consider `CC(C)(COc1ccc(Br)cc1)C(=O)NCCCN1c2ccccc2Sc2ccccc21`, for which the inhibition in assay [1] was found to be 34%; in assay [4], 19%; in assay [5], 12%. The compound also had a pIC50 in assay [3] of 4.68.
`O=C(COc1ccc(Br)cc1)NCCCN1c2ccccc2Sc2ccccc21` displayed an inhibition in assay [1] of 15%.
Regarding `O=C(O)CCN1c2ccccc2Sc2ccccc21`, the figures for the inhibition in assay [6] and in assay [7] were 14% and 25%, respectively.
Consider `OCCN1c2ccccc2Sc2ccccc21`, for which the inhibition came out at 14% in assay [6] and 12% in assay [7].
